Reference: PubChem BioAssay (NCI)
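These data come from cells grown in 96-well plates and exposed to compound for 48 hours at five concentrations. At the TGI there is no net growth.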

What was measured:
Assay in all cases: NCI tumour cell line growth inhibition, 48 h
TK-10 renal = tested on: TK-10 renal
KM12 colon = tested on: KM12 colon
M14 melanoma = tested on: M14 melanoma
SNB-75 CNS = tested on: SNB-75 CNS
HOP-92 NSCLC = tested on: HOP-92 NSCLC
IGROV1 ovarian = tested on: IGROV1 ovarian
RXF 393 renal = tested on: RXF 393 renal
NCI-H23 lung = tested on: NCI-H23 lung
A549 NSCLC = tested on: A549 NSCLC
DMS 114 small cell lung = tested on: DMS 114 small cell lung
HOP-62 NSCLC = tested on: HOP-62 NSCLC
DLD-1 colon = tested on: DLD-1 colon
K-562 leukemia = tested on: K-562 leukemia
LOX IMVI melanoma = tested on: LOX IMVI melanoma
SF-295 CNS = tested on: SF-295 CNS
SF-268 CNS = tested on: SF-268 CNS
SN12C renal = tested on: SN12C renal
CCRF-CEM leukemia = tested on: CCRF-CEM leukemia
SF-539 CNS = tested on: SF-539 CNS
HT29 colon = tested on: HT29 colon
SK-MEL-2 melanoma = tested on: SK-MEL-2 melanoma
NCI-H226 lung = tested on: NCI-H226 lung
CAKI-1 renal = tested on: CAKI-1 renal
OVCAR-3 ovarian = tested on: OVCAR-3 ovarian
RPMI-8226 leukemia = tested on: RPMI-8226 leukemia
XF 498 CNS = tested on: XF 498 CNS
SK-OV-3 ovarian = tested on: SK-OV-3 ovarian
OVCAR-4 ovarian = tested on: OVCAR-4 ovarian
COLO 205 colon = tested on: COLO 205 colon
UACC-257 melanoma = tested on: UACC-257 melanoma
M19-MEL melanoma = tested on: M19-MEL melanoma
UACC-62 melanoma = tested on: UACC-62 melanoma
NCI-H522 lung = tested on: NCI-H522 lung
MALME-3M melanoma = tested on: MALME-3M melanoma
SW-620 colon = tested on: SW-620 colon
HCC-2998 colon = tested on: HCC-2998 colon
OVCAR-5 ovarian = tested on: OVCAR-5 ovarian
HL-60(TB) leukemia = tested on: HL-60(TB) leukemia
SK-MEL-28 melanoma = tested on: SK-MEL-28 melanoma
KM20L2 colon = tested on: KM20L2 colon
LXFL 529 NSCLC = tested on: LXFL 529 NSCLC
SNB-19 CNS = tested on: SNB-19 CNS
786-0 renal = tested on: 786-0 renal
EKVX NSCLC = tested on: EKVX NSCLC
SNB-78 CNS = tested on: SNB-78 CNS
SR leukemia = tested on: SR leukemia
HOP-18 NSCLC = tested on: HOP-18 NSCLC
MOLT-4 leukemia = tested on: MOLT-4 leukemia
UO-31 renal = tested on: UO-31 renal
SK-MEL-5 melanoma = tested on: SK-MEL-5 melanoma
NCI-H460 lung = tested on: NCI-H460 lung
U251 CNS = tested on: U251 CNS
OVCAR-8 ovarian = tested on: OVCAR-8 ovarian
HCT-116 colon = tested on: HCT-116 colon
DMS 273 small cell lung = tested on: DMS 273 small cell lung
ACHN renal = tested on: ACHN renal

Measured: TGI

COc1ccc(-c2cc(=O)c3c(O)cc(O)cc3o2)c(OC)c1OC
not listed: SNB-78 CNS | SR leukemia | HOP-18 NSCLC | MOLT-4 leukemia | UO-31 renal | SK-MEL-5 melanoma | NCI-H460 lung | U251 CNS | OVCAR-8 ovarian | HCT-116 colon | DMS 273 small cell lung | ACHN renal
> 100 µM: all other assays above

[O-]c1c2c(nn1-c1ccc(Cl)cc1)c1ccccc1c[n+]2Cc1ccccc1
69.2 µM: SNB-75 CNS
79.5 µM: RXF 393 renal
not listed: HOP-92 NSCLC | M19-MEL melanoma
> 100 µM: all other assays above
